Laboratory results from publication PMC9227781, “Inhibitors of O-Acetylserine Sulfhydrylase with a Cyclopropane-Carboxylic Acid Scaffold Are Effective Colistin Adjuvants in Gram Negative Bacteria” (Pharmaceuticals, 2022).
Values after ≈ are worked out from the molar mass of the structure shown.

Key:
[1] = system: E. coli ATCC 25922; assay: MIC by broth microdilution, E. coli; type: cell-based, Escherichia coli; conditions: compound alone, MHB, 24 h at 37 °C; for MIC: Escherichia coli, ATCC25922, read-out: MIC (μg/mL) E.coli ATCC 25922
Method: (§1) MIC values were evaluated following CLSI guidelines with some modifications, as referred to in previous work. Twofold dilutions 25.6–0.05 mg/mL of the tested compounds were performed in DMSO in separate 96-well microtiter U-plates (Greiner, Milan, Italy). In a different 96-well microtiter U-plate, for each well of the replicates, 49 µL of broth medium were added. Then, in each well of the plate, one microliter of each compound at variable dilution in DMSO was added. For each test, three independent experiments with three replicates each were performed. Tested reference bacterial strains (E. coli ATCC25922; S. Typhimurium ATCC14028; K. pneumoniae ATCC13883) were brought to the logarithmic phase of growth in MHB medium by incubation at 37 °C for 24 h. After incubation, bacterial suspensions were centrifuged (2000 rpm, 4 °C for 20 min), and then the pellets were resuspended in 100 mM phosphate buffer, pH 7.0, to reach a final bacterial concentration of 10^8 CFU/mL, adjusted by spectrophotometry (OD620nm ranged between 0.08–0.13). The obtained suspensions were further diluted 1:100 in broth medium to reach a bacterial concentration of 10^6 CFU/mL. Fifty µL of the bacterial suspension containing 10^6 CFU/mL were inoculated into each well within 30 min, to obtain a final concentration of 5 × 10^5 CFU/mL in a total volume of 100 µL. The final dilution range tested was 256–0.5 µg/mL. Growth and sterility controls were performed for each strain and for each tested compound. Plates were then incubated for 24 h at 37 °C in a static aerobic atmosphere. After incubation, plates were read by unaided eye with a microtiter reading mirror and then the OD of each well of the plates was measured spectrophotometrically at 620 nm. MIC values were calculated as the arithmetic mean ± standard deviation (SD) of the unaided eye reading and the inhibition of growth for each tested dilution was calculated from the OD values (mean ± SD). A quality control microorganism (E. coli ATCC 25922) was tested periodically to validate the accuracy of the procedure.

[2] = target: T1, StOASS-A (Salmonella typhimurium, UniProt P0A1E3); assay: Fluorescence binding assay on purified recombinant StOASS-A; parameters: species or system S. Typhimurium; conditions: 20 °C, 100 mM HEPES, 5% DMSO, pH 7.0; racemic mixture; esters tested up to 100 μM
T1 construct: His-tag (with TEV site) (cleaved yes); made in house; host or cells: E. coli Rosetta (DE3)
Method: (§2) The affinity of the compounds for StOASS-A and StOASS-B was determined on the purified recombinant proteins by an in vitro fluorescence binding assay. Measurements were carried out at 20 °C in a 3 mm pathlength quartz microcuvette in 100 mM HEPES, 5% DMSO (Applichem, Darmstadt, Germany), pH 7.0, using a Fluoromax-4 (Horiba Jobin-Yvon, Kyoto, Japan) spectrofluorometer. Emission spectra of solutions containing 0.2–1.0 μM StOASS, upon excitation of the pyridoxal 5′-phosphate cofactor at 412 nm, in the presence of increasing concentrations of compounds were collected; fluorescence intensities at 500 nm were plotted to compound concentration and data were fitted to a binding isotherm: I=I0+ΔI·compound/KD+compound where I is the fluorescence emission intensity at 500 nm in the presence of a given concentration of compound, I0 is the initial fluorescence emission in the absence of ligands, ΔI is the amplitude of the fluorescence emission change and KD is the dissociation constant. When the KD was lower than the protein concentration, data were fitted to the quadratic equation: I=I0+ΔI·OASS+compound+KD−OASS+compound+KD^2−4·OASS·compound/2
(§3) Data were collected in duplicate.
(§4) Esters were tested up to a concentration of 100 μM and no binding was observed.

[3] = system: S. Typhimurium ATCC14028; assay: MIC by broth microdilution, S. Typhimurium; type: cell-based, Salmonella enterica serovar Typhimurium; conditions: compound alone, MHB, 24 h at 37 °C; for MIC: Salmonella enterica, read-out: MIC (μg/mL) S. Typhimurium ATCC14028
Method: as §1

[4] = system: K. pneumoniae ATCC13883; assay: MIC by broth microdilution, K. pneumoniae; type: cell-based, Klebsiella pneumoniae; conditions: compound alone, MHB, 24 h at 37 °C; for MIC: Klebsiella pneumoniae, ATCC13883, read-out: MIC (μg/mL) K. pneumoniae ATCC13883
Method: as §1

[5] = target: T2, StOASS-B (Salmonella typhimurium, UniProt P29848); assay: Fluorescence binding assay on purified recombinant StOASS-B; conditions: 20 °C, 100 mM HEPES, 5% DMSO, pH 7.0; racemic mixture; esters tested up to 100 μM
T2 construct: His-tag (with TEV site) (cleaved yes); made in house; host or cells: E. coli Rosetta (DE3)
T2 sequence (P29848 1-303): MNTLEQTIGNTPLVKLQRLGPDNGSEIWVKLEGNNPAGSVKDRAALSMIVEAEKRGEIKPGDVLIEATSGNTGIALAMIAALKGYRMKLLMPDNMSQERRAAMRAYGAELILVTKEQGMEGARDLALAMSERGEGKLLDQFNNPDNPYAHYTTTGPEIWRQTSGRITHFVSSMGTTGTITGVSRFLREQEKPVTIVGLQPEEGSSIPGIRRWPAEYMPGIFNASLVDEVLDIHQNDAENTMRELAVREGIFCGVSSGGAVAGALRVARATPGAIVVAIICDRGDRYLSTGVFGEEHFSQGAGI
Method: as §2, §3, §4

[6] = system: MDBK cells; assay: Cytotoxicity assay (MTT) on MDBK cells; type: cell-based, bovine; conditions: 32, 16, 8 µg/mL; MTT test
Method: The cytotoxicity assay was performed using the 3-(4,5-dimethylthiazol-2-yl)-2,5-diphenyltetrazolium bromide (MTT) test, following the procedure used by Donofrio et al.. MDBK cells were cultured on microtiter tissue culture plates in DMEM medium for 24 h at 37 °C in the presence of 5% CO2. After incubation, when the cell monolayer was at confluence, an aliquot of 1 µL of UPAR415 in DMSO at different concentrations was added in each well, containing a volume of 100 µL of DMEM medium and MDBK cells, and then the plates were reincubated at the same conditions. After incubation, 10 µL of MTT at 200 mg/mL (3-(4,5-dimethylthiazol-2-yl)-2,5-diphenyltetrazolium bromide) was added to each well and incubated at 37 °C for 6 h. At the end of the incubation, 100 µL of the solubilization solution (10% SDS in 0.01 M HCl) was added to each well and then incubated overnight. The MTT compound, a yellow tetrazolium salt, is reduced by mitochondrial enzymes (succinate dehydrogenase) of metabolically active eukaryotic cells to insoluble formazan crystals. In the presence of metabolically active cells, after the addition of a detergent solution (10% SDS in […]) that allows the formazan to be released from the cells, a violet color is seen in the medium. Instead, in the presence of non-viable cells, MTT is not reduced to formazan and therefore the solution will remain yellow.
After incubation, plates were read with a spectrophotometer at 620 nm. Positive controls (PC)—without any compounds—and PCs with 1% DMSO were performed for each plate and three replicates for two independent experiments were performed for each assay.

T1 sequence (P0A1E3 whole entry): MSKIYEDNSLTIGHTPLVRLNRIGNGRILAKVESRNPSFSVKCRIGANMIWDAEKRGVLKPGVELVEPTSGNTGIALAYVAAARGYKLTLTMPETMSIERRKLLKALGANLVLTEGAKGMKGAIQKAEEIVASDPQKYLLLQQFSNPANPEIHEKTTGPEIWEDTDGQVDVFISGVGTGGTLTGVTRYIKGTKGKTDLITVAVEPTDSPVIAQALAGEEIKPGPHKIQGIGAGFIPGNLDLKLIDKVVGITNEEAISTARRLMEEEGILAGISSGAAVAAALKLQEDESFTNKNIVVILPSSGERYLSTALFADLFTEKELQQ

Row | SMILES | MIC [1] [µg/mL] | KD (μM) OASS-A [2] | MIC [3] [µg/mL] | MIC [4] [µg/mL] | KD (μM) OASS-B [5] | Toxicity on viability of MDBK cells [6] | MIC (μg/mL) E.coli ATCC 25922 [1] | MIC (μg/mL) S. Typhimurium ATCC14028 [3] | MIC (μg/mL) K. pneumoniae ATCC13883 [4]
1 | CCOC(=O)[C@]1(Cc2ccc(C)cc2)C[C@H]1c1cccc(-c2cn[nH]c2)c1 (relative stereo) [Compound 8c, trans-ethyl 2-(3-(1H-pyrazol-4-yl)phenyl)-1-(4-methylbenzyl)cyclopropanecarboxylate] | > 512 | No binding | > 512 | > 512 | No binding | high toxicity profiles | – | – | –
2 | CCOC(=O)[C@]1(Cc2ccc(C)cc2)C[C@H]1c1cccc(-c2cc(O)cc(F)c2)c1 (relative stereo) [Compound 8e, trans-ethyl 2-(3′-fluoro-5′-hydroxy-[1,1′-biphenyl]-3-yl)-1-(4-methylbenzyl) cyclopropanecarboxylate] | > 512 | No binding | > 512 | > 512 | No binding | high toxicity profiles | – | – | –
3 | CCOC(=O)[C@]1(Cc2ccc(C)cc2)C[C@H]1c1cccc(-c2cccc(F)c2)c1 (relative stereo) [Compound 8f, trans-ethyl 2-(3′-fluoro-[1,1′-biphenyl]-3-yl)-1-(4-methylbenzyl)cyclopropanecarboxylate] | > 512 | No binding | > 512 | > 512 | No binding | proliferative effects | – | – | –
4 | CCOC(=O)[C@]1(Cc2ccc(C)cc2)C[C@H]1c1cccc(N2CCOCC2)c1 (relative stereo) [Compound 12g, trans-ethyl 1-(4-methylbenzyl)-2-(3-morpholinophenyl)cyclopropanecarboxylate] | > 512 | No binding | > 512 | > 512 | No binding | proliferative effects | – | – | –
5 | CCOC(=O)[C@]1(Cc2ccc(C)cc2)C[C@H]1c1cccc(N2CCNCC2)c1 (relative stereo) [Compound 20i, trans-ethyl 1-(4-methylbenzyl)-2-(3-(piperazin-1-yl)phenyl)cyclopropanecarboxylate] | 40 (≈ 106 µM) | No binding | 36 (≈ 95.1 µM) | 32 (≈ 84.5 µM) | No binding | high toxicity profiles | measurable antimicrobial activity | measurable antimicrobial activity | measurable antimicrobial activity
6 | CCOC(=O)[C@]1(Cc2ccc(C)cc2)C[C@H]1c1cccc(N2CCN(C)CC2)c1 (relative stereo) [Compound 20j, trans-ethyl 1-(4-methylbenzyl)-2-(3-(4-methylpiperazin-1-yl)phenyl)cyclopropanecarboxylate] | > 512 | No binding | > 512 | > 512 | No binding | high toxicity profiles | – | – | –
7 | CCOC(=O)C1(Cc2ccc(C)cc2)CC1c1cccc(-c2c[nH]nc2C)c1 (stereo not drawn) [Compound 8b, ethyl 2-(3-(3-methyl-1H-pyrazol-4-yl)phenyl)-1-(4-methylbenzyl)cyclopropanecarboxylate] | > 512 | No binding | > 512 | > 512 | No binding | high toxicity profiles | – | – | –
